Tests used:
Mu-type opioid receptor = Mu-type opioid receptor (Homo sapiens, UniProt P35372); assay: biochemical; format: functional
Adenosine receptor A1 = target: T1, Adenosine receptor A1 (Homo sapiens, UniProt P30542)
T1 sequence (P30542 whole entry): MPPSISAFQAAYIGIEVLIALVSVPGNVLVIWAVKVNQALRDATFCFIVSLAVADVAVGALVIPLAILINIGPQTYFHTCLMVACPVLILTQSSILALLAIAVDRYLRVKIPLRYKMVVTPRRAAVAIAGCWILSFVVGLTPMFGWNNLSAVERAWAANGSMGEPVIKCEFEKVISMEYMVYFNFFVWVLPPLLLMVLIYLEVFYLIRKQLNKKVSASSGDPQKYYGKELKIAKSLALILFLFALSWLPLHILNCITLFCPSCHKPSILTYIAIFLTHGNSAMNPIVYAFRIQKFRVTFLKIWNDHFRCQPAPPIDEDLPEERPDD

Progesterone receptor = target: T2, Progesterone receptor (Homo sapiens, UniProt P06401)
T2 sequence (P06401 whole entry): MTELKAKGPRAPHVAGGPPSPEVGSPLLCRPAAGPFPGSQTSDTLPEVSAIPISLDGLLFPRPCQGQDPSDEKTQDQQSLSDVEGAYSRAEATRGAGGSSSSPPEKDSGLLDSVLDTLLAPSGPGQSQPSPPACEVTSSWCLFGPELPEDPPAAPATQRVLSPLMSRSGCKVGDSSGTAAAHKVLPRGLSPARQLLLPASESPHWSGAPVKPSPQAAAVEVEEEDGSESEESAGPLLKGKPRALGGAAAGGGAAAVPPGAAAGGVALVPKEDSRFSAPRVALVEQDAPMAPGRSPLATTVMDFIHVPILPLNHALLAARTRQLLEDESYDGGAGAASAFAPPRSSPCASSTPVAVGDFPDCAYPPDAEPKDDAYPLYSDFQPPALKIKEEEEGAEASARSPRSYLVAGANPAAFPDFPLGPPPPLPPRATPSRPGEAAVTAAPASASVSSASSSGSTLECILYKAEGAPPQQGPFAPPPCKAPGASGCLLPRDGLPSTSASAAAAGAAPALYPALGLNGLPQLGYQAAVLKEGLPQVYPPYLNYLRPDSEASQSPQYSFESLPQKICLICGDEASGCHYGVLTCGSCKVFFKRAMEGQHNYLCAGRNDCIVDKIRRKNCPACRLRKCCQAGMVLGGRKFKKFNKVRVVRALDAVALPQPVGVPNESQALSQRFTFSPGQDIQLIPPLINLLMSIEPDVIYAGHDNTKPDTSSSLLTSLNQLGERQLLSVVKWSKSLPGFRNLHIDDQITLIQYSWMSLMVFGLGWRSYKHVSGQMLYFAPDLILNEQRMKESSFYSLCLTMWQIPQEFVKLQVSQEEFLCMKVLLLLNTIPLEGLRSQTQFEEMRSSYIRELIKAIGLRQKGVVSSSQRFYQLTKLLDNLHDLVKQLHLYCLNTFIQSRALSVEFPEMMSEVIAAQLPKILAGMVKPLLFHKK

[1] = target: Epidermal growth factor receptor (Homo sapiens, UniProt P00533); format: functional
[2] = target: Vascular endothelial growth factor receptor 2 (Homo sapiens, UniProt P35968); format: functional
[3] = target: T3, Peroxisome proliferator-activated receptor gamma (Homo sapiens, UniProt P37231); format: functional
T3 sequence (P37231 whole entry): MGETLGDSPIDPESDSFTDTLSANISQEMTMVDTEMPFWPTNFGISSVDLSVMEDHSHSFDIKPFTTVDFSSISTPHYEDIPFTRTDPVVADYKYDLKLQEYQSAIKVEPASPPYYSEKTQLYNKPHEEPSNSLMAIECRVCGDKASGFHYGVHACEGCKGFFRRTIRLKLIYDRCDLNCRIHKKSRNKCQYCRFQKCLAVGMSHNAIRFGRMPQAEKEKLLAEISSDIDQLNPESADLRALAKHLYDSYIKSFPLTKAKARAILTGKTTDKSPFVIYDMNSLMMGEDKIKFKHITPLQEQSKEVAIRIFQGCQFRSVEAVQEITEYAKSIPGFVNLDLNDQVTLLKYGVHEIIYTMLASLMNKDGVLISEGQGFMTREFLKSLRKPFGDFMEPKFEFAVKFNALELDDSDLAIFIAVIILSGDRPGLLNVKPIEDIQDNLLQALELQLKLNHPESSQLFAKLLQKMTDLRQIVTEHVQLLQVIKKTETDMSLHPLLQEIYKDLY

Estrogen receptor = target: T4, Estrogen receptor (Homo sapiens, UniProt P03372); format: functional
T4 sequence (P03372 whole entry): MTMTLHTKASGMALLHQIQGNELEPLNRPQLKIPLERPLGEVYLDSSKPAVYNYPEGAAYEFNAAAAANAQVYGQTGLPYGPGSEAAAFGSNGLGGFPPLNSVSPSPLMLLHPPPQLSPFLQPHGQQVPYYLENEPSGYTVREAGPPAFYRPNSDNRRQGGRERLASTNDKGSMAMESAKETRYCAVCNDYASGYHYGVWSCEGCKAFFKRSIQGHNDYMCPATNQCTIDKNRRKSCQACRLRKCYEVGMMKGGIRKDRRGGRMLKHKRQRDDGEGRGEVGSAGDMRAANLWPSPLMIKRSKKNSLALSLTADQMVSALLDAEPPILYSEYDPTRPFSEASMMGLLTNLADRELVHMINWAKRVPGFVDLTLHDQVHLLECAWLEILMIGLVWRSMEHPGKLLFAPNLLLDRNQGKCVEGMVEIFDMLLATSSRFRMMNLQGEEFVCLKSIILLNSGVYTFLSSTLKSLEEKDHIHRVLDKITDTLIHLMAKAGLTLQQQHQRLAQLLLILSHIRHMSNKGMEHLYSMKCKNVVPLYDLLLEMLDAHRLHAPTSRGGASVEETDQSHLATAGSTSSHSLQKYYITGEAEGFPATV
Note: assay procedure not described here.

Sequence of Mu-type opioid receptor (P35372 whole entry): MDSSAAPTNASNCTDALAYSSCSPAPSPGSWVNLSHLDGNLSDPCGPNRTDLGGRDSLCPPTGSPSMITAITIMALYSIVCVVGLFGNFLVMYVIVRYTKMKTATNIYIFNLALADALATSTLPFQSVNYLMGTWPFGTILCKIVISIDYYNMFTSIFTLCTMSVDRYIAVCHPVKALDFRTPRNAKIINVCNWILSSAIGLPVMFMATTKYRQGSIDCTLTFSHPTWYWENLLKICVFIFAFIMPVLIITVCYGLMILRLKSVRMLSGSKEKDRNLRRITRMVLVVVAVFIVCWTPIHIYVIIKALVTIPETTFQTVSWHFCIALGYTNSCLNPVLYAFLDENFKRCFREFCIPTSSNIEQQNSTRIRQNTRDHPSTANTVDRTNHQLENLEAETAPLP
Sequence of Vascular endothelial growth factor receptor 2 (P35968 whole entry): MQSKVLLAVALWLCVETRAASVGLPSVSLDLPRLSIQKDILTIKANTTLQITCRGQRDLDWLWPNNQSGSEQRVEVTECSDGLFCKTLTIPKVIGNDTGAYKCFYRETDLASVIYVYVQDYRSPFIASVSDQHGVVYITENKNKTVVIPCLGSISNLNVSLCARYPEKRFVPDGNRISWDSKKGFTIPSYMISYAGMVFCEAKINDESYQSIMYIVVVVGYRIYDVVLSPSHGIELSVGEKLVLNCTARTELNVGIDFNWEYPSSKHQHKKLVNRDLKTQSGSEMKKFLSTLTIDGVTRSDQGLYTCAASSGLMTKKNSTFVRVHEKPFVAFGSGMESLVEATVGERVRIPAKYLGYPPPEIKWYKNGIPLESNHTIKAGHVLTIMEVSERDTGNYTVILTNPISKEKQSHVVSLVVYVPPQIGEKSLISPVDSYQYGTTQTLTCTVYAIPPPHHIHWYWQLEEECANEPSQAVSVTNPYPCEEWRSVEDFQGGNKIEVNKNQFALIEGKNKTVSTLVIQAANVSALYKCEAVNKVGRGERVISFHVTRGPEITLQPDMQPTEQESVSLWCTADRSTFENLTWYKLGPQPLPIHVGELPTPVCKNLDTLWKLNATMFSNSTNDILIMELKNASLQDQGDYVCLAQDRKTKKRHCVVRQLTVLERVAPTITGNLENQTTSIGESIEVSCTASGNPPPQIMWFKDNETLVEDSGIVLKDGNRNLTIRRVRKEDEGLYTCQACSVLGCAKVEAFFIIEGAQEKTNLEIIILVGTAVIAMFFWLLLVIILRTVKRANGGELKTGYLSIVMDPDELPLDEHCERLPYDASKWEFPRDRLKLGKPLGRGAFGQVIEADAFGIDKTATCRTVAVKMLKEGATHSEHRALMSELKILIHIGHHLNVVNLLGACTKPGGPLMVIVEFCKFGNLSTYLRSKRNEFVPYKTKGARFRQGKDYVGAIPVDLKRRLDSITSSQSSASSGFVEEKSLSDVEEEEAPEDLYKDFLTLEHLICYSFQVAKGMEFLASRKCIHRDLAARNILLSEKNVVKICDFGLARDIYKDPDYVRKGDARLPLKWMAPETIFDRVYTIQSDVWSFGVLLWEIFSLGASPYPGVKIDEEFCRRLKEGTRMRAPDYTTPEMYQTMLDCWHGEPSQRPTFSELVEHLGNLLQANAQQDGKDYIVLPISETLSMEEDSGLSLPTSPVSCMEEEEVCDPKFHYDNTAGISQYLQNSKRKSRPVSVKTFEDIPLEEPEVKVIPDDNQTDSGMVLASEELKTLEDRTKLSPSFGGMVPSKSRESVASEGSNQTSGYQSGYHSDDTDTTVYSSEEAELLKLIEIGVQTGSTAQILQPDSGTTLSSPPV
Sequence of Epidermal growth factor receptor (P00533 whole entry): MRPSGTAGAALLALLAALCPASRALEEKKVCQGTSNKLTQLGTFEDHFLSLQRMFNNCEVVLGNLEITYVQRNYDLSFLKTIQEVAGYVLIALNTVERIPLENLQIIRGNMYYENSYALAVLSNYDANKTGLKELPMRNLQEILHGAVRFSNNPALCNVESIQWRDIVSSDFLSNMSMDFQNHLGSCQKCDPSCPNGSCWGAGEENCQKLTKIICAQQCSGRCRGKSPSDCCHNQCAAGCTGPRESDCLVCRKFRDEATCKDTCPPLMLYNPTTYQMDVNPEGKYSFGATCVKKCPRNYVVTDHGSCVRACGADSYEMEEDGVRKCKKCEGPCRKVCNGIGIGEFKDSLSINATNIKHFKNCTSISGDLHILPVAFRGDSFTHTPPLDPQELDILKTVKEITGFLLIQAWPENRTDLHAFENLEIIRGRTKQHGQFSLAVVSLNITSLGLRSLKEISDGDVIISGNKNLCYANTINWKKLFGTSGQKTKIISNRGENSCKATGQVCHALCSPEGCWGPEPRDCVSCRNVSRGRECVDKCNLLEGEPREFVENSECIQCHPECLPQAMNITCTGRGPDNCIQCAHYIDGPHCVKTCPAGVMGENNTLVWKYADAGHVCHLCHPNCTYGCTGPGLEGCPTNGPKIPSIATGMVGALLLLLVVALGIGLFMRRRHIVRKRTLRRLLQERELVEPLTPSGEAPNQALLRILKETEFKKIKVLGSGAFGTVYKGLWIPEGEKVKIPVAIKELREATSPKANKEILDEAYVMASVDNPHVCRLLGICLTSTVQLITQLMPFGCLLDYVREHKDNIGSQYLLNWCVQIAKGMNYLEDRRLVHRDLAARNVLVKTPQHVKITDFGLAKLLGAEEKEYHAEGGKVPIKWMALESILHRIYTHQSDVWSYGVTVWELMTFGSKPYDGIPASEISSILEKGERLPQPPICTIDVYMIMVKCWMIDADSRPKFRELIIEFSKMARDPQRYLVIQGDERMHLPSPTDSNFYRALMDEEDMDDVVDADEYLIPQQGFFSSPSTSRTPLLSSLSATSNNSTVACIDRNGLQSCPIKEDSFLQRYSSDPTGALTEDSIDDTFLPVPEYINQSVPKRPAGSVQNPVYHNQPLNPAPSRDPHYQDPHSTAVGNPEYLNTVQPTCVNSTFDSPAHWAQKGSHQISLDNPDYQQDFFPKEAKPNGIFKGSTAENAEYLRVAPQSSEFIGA

## CC(C)/N=c1\cc2n(-c3ccc(Cl)cc3)c3ccccc3nc-2cc1Nc1ccc(Cl)cc1 [CLOFAZIMINE]
Mu-type opioid receptor
  AC50: > 30 µM

## CCCCCCCCCCCCCCCC(=O)OC[C@H](COP(=O)([O-])OCC[N+](C)(C)C)OC(=O)CCCCCCCCCCCCCCC [COLFOSCERIL PALMITATE]
Adenosine receptor A1
  AC50: > 30 µM

## COC(=O)CCc1ccc(OCC(O)CNC(C)C)cc1 (configuration not stated) [ESMOLOL]
Mu-type opioid receptor
  AC50: > 30 µM

## C[C@]12CCC(=O)C=C1CC[C@H]1[C@@H]3CC[C@](O)(C(=O)CO)[C@@]3(C)C[C@H](O)[C@@]12F [FLUDROCORTISONE]
Progesterone receptor
  AC50: > 30 µM

## O=c1[nH]cc(F)c(=O)[nH]1 [FLUOROURACIL]
Adenosine receptor A1
  AC50: > 30 µM

## CCOC(=O)Nc1ccc(NCc2ccc(F)cc2)nc1N [FLUPIRTINE]
Mu-type opioid receptor
  AC50: > 30 µM

## NCC1(CC(=O)O)CCCCC1 [GABAPENTIN]
Progesterone receptor
  AC50: > 30 µM
[1]
  AC50: > 30 µM
[2]
  AC50: > 30 µM
[3]
  AC50: > 30 µM

## CCN(CCO)CCCC(C)Nc1ccnc2cc(Cl)ccc12 (configuration not stated) [HYDROXYCHLOROQUINE]
Mu-type opioid receptor
  AC50: > 30 µM

## C[C@@H](O)[C@H]1C(=O)N2C(C(=O)O)=C(SCCN=CN)C[C@H]12 [IMIPENEM ANHYDROUS]
[1]
  AC50: > 300 µM
[2]
  AC50: > 300 µM
Estrogen receptor
  AC50: > 300 µM
[3]
  AC50: > 300 µM

## O=C(c1ccccc1)c1ccc2n1CCC2C(=O)O (configuration not stated) [KETOROLAC]
Mu-type opioid receptor
  AC50: 0.0013 µM

## Nc1nnc(-c2cccc(Cl)c2Cl)c(N)n1 [LAMOTRIGINE]
Progesterone receptor
  AC50: > 30 µM

## N[C@@H](Cc1cc(I)c(Oc2cc(I)c(O)c(I)c2)c(I)c1)C(=O)O [LEVOTHYROXINE]
Mu-type opioid receptor
  AC50: > 30 µM
[3]
  AC50: > 30 µM

## CC(=O)NC[C@H]1CN(c2ccc(N3CCOCC3)c(F)c2)C(=O)O1 [LINEZOLID]
Mu-type opioid receptor
  AC50: > 30 µM

## CCCCCCO[C@@H](C)c1cccc(-c2csc(NC(=O)c3cc(Cl)c(/C=C(\C)C(=O)O)c(Cl)c3)n2)c1OC [LUSUTROMBOPAG]
Adenosine receptor A1
  AC50: > 30 µM

## CO[C@@]1(NC(=O)C(C(=O)O)c2ccc(O)cc2)C(=O)N2C(C(=O)O)=C(CSc3nnnn3C)CO[C@@H]21 (some centres not stated) [MOXALACTAM]
Adenosine receptor A1
  AC50: > 30 µM

## CS(=O)(=O)Nc1ccc([N+](=O)[O-])cc1Oc1ccccc1 [NIMESULIDE]
Mu-type opioid receptor
  AC50: > 30 µM

## CCCCCCCC/C=C\CCCCCCCC(=O)O [OLEIC ACID]
[3]
  AC50: > 300 µM

## C#CCN(C)Cc1ccccc1 [PARGYLINE]
Mu-type opioid receptor
  AC50: > 30 µM
Adenosine receptor A1
  AC50: > 30 µM

## COc1cccc2c1C(=O)c1c(O)c3c(c(O)c1C2=O)C[C@@](O)(C(=O)CO)C[C@@H]3O[C@H]1C[C@H](N)[C@H](O[C@@H]2CCCCO2)[C@H](C)O1 [PIRARUBICIN]
Adenosine receptor A1
  AC50: > 30 µM

## CC(=O)SCC(Cc1ccccc1)C(=O)NCC(=O)OCc1ccccc1 (configuration not stated) [RACECADOTRIL]
Progesterone receptor
  AC50: > 30 µM
Mu-type opioid receptor
  AC50: > 30 µM

## CCOc1ccccc1OCCN[C@H](C)Cc1ccc(OC)c(S(N)(=O)=O)c1 [TAMSULOSIN]
Progesterone receptor
  AC50: > 30 µM
Mu-type opioid receptor
  AC50: 3.8 µM

## C[C@H](Cn1cnc2c(N)ncnc21)OCP(=O)(O)O [TENOFOVIR ANHYDROUS]
Mu-type opioid receptor
  AC50: > 30 µM

## CC(C)(CO)c1cc2cc(NC(=O)C3(c4ccc5c(c4)OC(F)(F)O5)CC3)c(F)cc2n1C[C@@H](O)CO [TEZACAFTOR]
Estrogen receptor
  AC50: > 30 µM
[3]
  AC50: > 30 µM

## Cc1c(C)c2c(c(C)c1O)CCC(C)(COc1ccc(CC3SC(=O)NC3=O)cc1)O2 (configuration not stated) [TROGLITAZONE]
Progesterone receptor
  AC50: > 30 µM
Mu-type opioid receptor
  AC50: > 30 µM
Estrogen receptor
  AC50: > 30 µM
